Test results taken from patent US6114127A, “Methods of screening for agonists and antagonists of the HDPXU17 receptor” (SmithKline Beecham Corporation, priority 1998, dated 2000).
Entries after “also recorded” stand apart in the source; their conditions may differ.

Legend:
[1] = molecular target: T1, HDPXU17 receptor (P2Y-like receptor) (Homo sapiens, UniProt Q96G91); assay: Gs reporter gene luciferase assay, HEK 293 cells stably expressing the luciferase reporter, transfected with HDPXU17 DNA; type: cell-based; details: for luciferase activity: concentration ranges from 3-300,000 nM, HDPXU17-transfected HEK 293 reporter cells, result in words; for EC50: luciferase activity, HEK 293 MREIIVIPII reporter cells transfected with HDPXU17, 3-300,000 nM
T1 construct: expressed in transfected cells; host or cells: HEK 293 cells stably expressing the MREIIVIPII luciferase reporter gene, transiently transfected with pCDN-HDPXU17 DNA (Lipofectamine)
T1 sequence (Q96G91 1-374): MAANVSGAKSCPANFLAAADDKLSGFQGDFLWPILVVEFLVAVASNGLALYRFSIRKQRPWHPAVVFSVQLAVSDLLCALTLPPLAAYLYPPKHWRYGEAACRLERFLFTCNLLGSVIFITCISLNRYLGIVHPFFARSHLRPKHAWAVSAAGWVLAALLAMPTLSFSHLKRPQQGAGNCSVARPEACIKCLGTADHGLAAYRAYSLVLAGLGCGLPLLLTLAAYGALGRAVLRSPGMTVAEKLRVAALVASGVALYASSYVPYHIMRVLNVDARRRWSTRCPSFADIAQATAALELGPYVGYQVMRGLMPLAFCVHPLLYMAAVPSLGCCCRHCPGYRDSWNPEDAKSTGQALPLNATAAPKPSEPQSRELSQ
Excerpt: (§1) The Gs reporter gene luciferase assay for orphan G-protein coupled receptors has been developed using a recombinant construct MREIVIPII plasmid, which has been disclosed European Patent Application No. 0 863 214, published on Sep. 9, 1998. This assay utilizes a luciferase gene fused to three copies of multiple response elements (MREs), one copy of cAMP response element (CRE) and the basal promoter of the vasointestinal peptide (VIP) gene to specifically monitor protein kinase A activation that results from an increase in intracellular cAMP. The system is not sensitive to activation of protein kinase C pathways. Rather, it responds to increases in cAMP mediated by endogenous and recombinant Gs-coupled GPCR activation with up to 120-fold increases in luciferase activity.
(§2) The assay begins when HEK 293 cells stably expressing the MREIIVIPII luciferase reporter gene were seeded at 4,500,000 per flask and incubated overnight at 37° C. The next day, solutions A (4 ug of pCDN-HDPXU17DNA was added to 0.8 ml EMEM without serum) and B (23.1 ul Lipofectamine was mixed in 0.8 ml EMEM without serum) were prepared, mixed together and incubated 30 min at room temperature. During the incubation, the culture medium was aspirated from cells and replaced with 12.5 ml serum-free EMEM. Next, the DNA and Lipofectamine mixture was added to the cells and incubated at 37° C. for 6 hours. After 6 hours, 13 ml of EMEM containing 10% FBS was added to the cells and incubated overnight at 37° C. The next day, the 96-well plates were pretreated with 1× Matrixgel solution at 50 ul/well for one hour. Then, the matrixgel solution and plate cells were aspirated at 2000-4000 cells/well. After overnight incubation at 37° C., 5-20 ul /well of the test compounds were added to the 96-well plates and incubated at 37° C. After 6 hours, the medium of each well was aspirated, 25 ul of 1×PBS without calcium and magnesium was added, the plates were frozen at -70° C. Then, the plates were allowed to thaw. Luc-lite solution (25 ul/well) was added and luciferase activity was measured by TopCount HTS.
In stable HDPXU17-expressing 293 cells(clone 20#) cells transiently transfected with MREIIVIPII plasmid, similar results are obtained.

[2] = molecular target: T1, HDPXU17 receptor (P2Y-like receptor); assay: Gs reporter gene luciferase assay, stable HDPXU17-expressing 293 cells (clone 20#) transiently transfected with MREIIVIPII plasmid; type: cell-based; details: for EC50: luciferase activity, stable HDPXU17-expressing 293 cells (clone 20#) transiently transfected with MREIIVIPII plasmid
Excerpt: as §1
as §2, with “HTS. […]” for “HTS.”

Compound	luciferase activity [1]	EC50 [2] [µM]	best ligand for HDPXU 17 receptor ([1]; based on results in both transient and stable HDPXU17 cells)	EC50 [1] [µM]	luciferase activity ([2]; stable HDPXU17-expressing 293 cells (clone 20#), result in words)
Nc1nc2c(ncn2[C@H]2C[C@H](O)[C@@H](COP(=O)(O)OP(=O)(O)OP(=O)(O)O)O2)c(=O)[nH]1 [dGTP]	no effect on luciferase activity				
Nc1ncnc2c1ncn2[C@H]1C[C@H](O)[C@@H](COP(=O)(O)OP(=O)(O)OP(=O)(O)O)O1 [dATP, deoxyadenosine triphosphate]	increase luciferase activity only in cells transfected with the HDPXU17 receptor	4.05	appears to be the best ligand for HDPXU 17 receptor	17.3	
O=c1ccn([C@@H]2O[C@H](COP(=O)(O)OP(=O)(O)OP(=O)(O)O)[C@@H](O)[C@H]2O)c(=O)[nH]1 [UTP, uridine triphosphate]	increase luciferase activity only in cells transfected with the HDPXU17 receptor; also recorded: specific, but weak				still weak, but specific
Cc1cn([C@H]2C[C@H](O)[C@@H](COP(=O)(O)OP(=O)(O)OP(=O)(O)O)O2)c(=O)[nH]c1=O [dTTP]	no effect on luciferase activity				
Nc1ncnc2c1ncn2[C@H]1C[C@H](O)[C@@H](COP(=O)(O)O)O1 [dAMP, deoxyadenosine monophosphate]	increase luciferase activity only in cells transfected with the HDPXU17 receptor	200		105	
Nc1ccn([C@H]2C[C@H](O)[C@@H](COP(=O)(O)OP(=O)(O)OP(=O)(O)O)O2)c(=O)n1 [dCTP]	no effect on luciferase activity				
